Measurements from patent publication US10253041B2, “7-phenylethylamino-4H-pyrimido[4,5-d][1,3]oxazin-2-one compounds and their use as mutant IDH1 inhibitors” (Eli Lilly and Company, priority 2015, dated 2019).

Key:
[1] = target: T1, IDH1/R132C (Homo sapiens, UniProt O75874, R132C); experiment: Biochemical assay for IDH1 R132C mutant enzyme (2HG by RapidFire MS); conditions: mean ± standard deviation of the mean; 90 minutes reaction
T1 construct: His-tag (N); made in house; host or cells: E. coli
Description: (§1) IDH1-R132H, IDH1-R132C, IDH2-R172K and IDH2-R140Q mutant enzymes catalyze the conversion of αKG to 2HG. 2HG is analyzed using in-line solid phase extraction and mass spectrometry. This analysis is carried out in a RapidFire® instrument coupled to a 6460 triple quadrupole mass spectrometer (G6460A Agilent).
(§2) IDH1 mutant (R132H and R132C) and IDH2 mutant (R140Q and R172K) proteins containing N-terminal His-tag are expressed in E. coli and purified using nickel affinity chromatography. The enzyme assays are carried out in V-bottom 96 well polypropylene plates containing 100 mM Tris-HCl buffer, 1 mM DTT, 0.005% TRITON™ X-100, 120 mM NaCl. For IDH1 R132H, α-ketoglutarate, NADPH and MnCl2 are included at final concentrations of 300 μM, 2.5 μM and 300 μM respectively. For IDH1 R132C, α-ketoglutarate, NADPH and MnCl2 are included at final concentrations of 100 μM, 10 μM and 100 μM respectively. For IDH2 R172K, α-ketoglutarate, NADPH and MnCl2 are included at final concentrations of 150 μM, 10 μM and 150 μM respectively. For IDH2 R140Q, α-ketoglutarate, NADPH and MnCl2 are included at final concentrations of 3000 μM, 10 μM and 100 μM respectively. Final pH=7.0. Test compound dissolved in DMSO stock is diluted in the reaction mix at a final DMSO concentration of 4%. Compounds are tested in dose-response format. The assay is started by addition of enzyme. Enzymes are used at the following final concentrations: IDH1 R132H, 2 nM; IDH1 R132C, 0.5 nM; IDH2 R172K, 1.2 nM; IDH2 R140Q, 1.2 nM. After 90 minutes the reaction is quenched by adding ACN (50:50) containing 3-hydroxy-1,5-pentanedioic-2,2,3,4,4-d5 acid (5d5-3HG) as an internal standard for mass spectrometry analysis and quantitation of reaction product. 2-Hydroxyglutarate (2HG) in quenched samples is separated using strong anionic exchange column chromatography (Phenomenex Strata-X-A SecurityGuard) and analyzed by mass spectrometry in a 6460 triple quadrupole mass spectrometer (G6460A Agilent). The 2HG signal detected is transformed into an analyte concentration using a calibration curve generated using known 2HG concentrations. […] IC50 values are obtained from the individual % inhibition values at different compound concentrations using a 4-parameter equation. These calculations are carried out using Activity Base (IDBS) or Screener (Genedata) data analysis programs.

[2] = target: T2, IDH1/R132H (Homo sapiens, UniProt O75874, R132H); experiment: Biochemical assay for IDH1 R132H mutant enzyme (2HG by RapidFire MS); conditions: mean ± standard deviation of the mean; 90 minutes reaction
T2 construct: His-tag (N); made in house; host or cells: E. coli
Description: as §1, §2

[3] = target: T3, IDH2 Wild-Type (Homo sapiens, UniProt P48735); experiment: Biochemical assay for wild-type IDH2 enzyme (αKG by LC-MS); conditions: mean ± standard deviation of the mean
T3 construct: His-tag (N); made in house; host or cells: E. coli
T3 sequence (P48735 40-452): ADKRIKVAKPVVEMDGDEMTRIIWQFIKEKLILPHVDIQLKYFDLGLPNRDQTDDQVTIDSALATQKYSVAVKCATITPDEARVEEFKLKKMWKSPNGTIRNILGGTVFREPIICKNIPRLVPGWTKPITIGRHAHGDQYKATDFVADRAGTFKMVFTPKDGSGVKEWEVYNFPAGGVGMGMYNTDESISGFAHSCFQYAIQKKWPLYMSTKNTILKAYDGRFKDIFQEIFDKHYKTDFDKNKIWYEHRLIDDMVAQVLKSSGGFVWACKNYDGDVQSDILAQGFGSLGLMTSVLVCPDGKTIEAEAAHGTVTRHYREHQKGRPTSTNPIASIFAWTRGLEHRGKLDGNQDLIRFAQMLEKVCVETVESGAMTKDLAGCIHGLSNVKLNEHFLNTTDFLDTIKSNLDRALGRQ
Description: IDH1 and IDH2 enzymes catalyze the conversion of isocitrate to αKG. Wild-type IDH1 (National Center for Biotechnology Information, Accession: NP_001269316.1) and IDH2 (National Center for Biotechnology Information, Accession: EAX02082.1) proteins containing N-terminal His-tag are expressed in E. coli and purified using nickel affinity chromatography. The enzyme assays are carried out in V-bottom 96 well polypropylene plates containing 100 mM Tris-HCl buffer at pH 7.5, 1 mM DTT, 0.005% TRITON™ X-100, 120 mM NaCl. For the IDH1 wild-type assay isocitrate, NADP^+ and MnCl2 are included at the concentrations of 85 μM, 50 μuM and 20 μM respectively. For the IDH2 wild-type assay isocitrate, NADP^+ and MnCl2 are included at the concentrations of 30 μM, 50 μM and 10 μM respectively. Inhibitors dissolved in a DMSO stock solution are diluted in the reaction mixture at a final DMSO concentration of 4%. The enzyme assay is terminated (quenched) by adding ACN (50:50) containing d6-2-ketopentanedioic acid (d6-αKG) as an internal standard for mass spectrometry analysis. Ten microliters of reaction mixture is combined with 100 μL of water, 50 μL of 1 M O-benzylhydroxylamine in pyridine buffer (8.6% pyridine, pH 5), and 50 μL of 1 M N-(3-dimethylaminopropyl)-N-ethylcarbodiimide hydrochloride (EDC) in pyridine buffer. Following derivatization at room temperature for one hour, samples are extracted with 600 μL of EtOAc. Four hundred […] of the upper layer is removed, dried under heated nitrogen and reconstituted with 100 μL of MeOH/water (1:1). Ten μL of derivatized sample is injected onto an LC-MS system consisting of a Shimadzu Prominence 20A HPLC system and a The Thermo Quantum Ultra™ triple quadrupole mass spectrometer. Analytes are separated on a Waters XBridge™ C18 column (2.1×50 mm, […]) with a flow rate of 0.6 mL/minute. Mobile phase A is 0.1% formic acid in water and mobile phase B is MeOH. The αKG signal detected is transformed into analyte concentration using a calibration curve generated using known αKG concentrations. […] IC50 values are obtained from the individual % inhibition values at different compound concentrations using a 4-parameter equation. These calculations are carried out using Activity Base (IDBS) or Screener (Genedata) data analysis programs.

T2 sequence (O75874 whole entry R132H): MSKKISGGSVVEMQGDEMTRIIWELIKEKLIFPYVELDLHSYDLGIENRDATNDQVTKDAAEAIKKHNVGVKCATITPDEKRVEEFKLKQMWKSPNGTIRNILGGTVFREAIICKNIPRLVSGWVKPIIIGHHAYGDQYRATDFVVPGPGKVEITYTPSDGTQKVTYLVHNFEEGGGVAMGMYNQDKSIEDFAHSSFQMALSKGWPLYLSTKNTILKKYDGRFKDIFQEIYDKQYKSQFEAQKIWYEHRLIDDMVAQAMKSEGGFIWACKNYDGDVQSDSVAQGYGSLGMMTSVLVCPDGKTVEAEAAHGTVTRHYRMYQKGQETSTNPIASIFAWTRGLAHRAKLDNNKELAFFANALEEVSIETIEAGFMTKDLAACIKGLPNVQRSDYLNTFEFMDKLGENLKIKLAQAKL
T1 sequence (O75874 whole entry R132C): as the sequence (O75874 whole entry R132H) above, with H132C counted along it

Compound	IC50 [1] [nM]	IC50 [2] [nM]	IC50 [3] [nM]
C=CC(=O)N1CC(COc2ccc([C@H](C)Nc3ncc4c(n3)N(CC)C(=O)OC4)cc2)C1 [Example 17, 1-Ethyl-7-[[(1S)-1-[4-[(1-prop-2-enoylazetidin-3-yl)methoxy]phenyl]ethyl]amino]-4H-pyrimido[4,5-d][1,3]oxazin-2-one]	215 ± 86	114 ± 38	950 ± 1290
C=CC(=O)N1CCN(Cc2ccc([C@H](C)Nc3ncc4c(n3)N(C)C(=O)OC4)cc2)CC1 [Example 19, 1-Methyl-7-[[(1S)-1-[4-[(4-prop-2-enoylpiperazin-1-yl)methyl]phenyl]ethyl]amino]-4H-pyrimido[4,5-d][1,3]oxazin-2-one]	1580 ± 340	776 ± 210	28700 ± 1500
C=CC(=O)N1CCN(Cc2ccc([C@H](C)Nc3ncc4c(n3)N(CCF)C(=O)OC4)cc2)CC1 [Example 21, 1-(2-fluoroethyl)-7-[[(1S)-1-[4-[(4-prop-2-enoylpiperazin-1-yl)methyl]phenyl]ethyl]amino]-4H-pyrimido[4,5-d][1,3]oxazin-2-one]	485 ± 17	323 ± 76	31100 ± 2100

Compounds with a lower IC50 [1], results first:

IC50 [1] [nM]	IC50 [2] [nM]	IC50 [3] [nM]	Compound
109 ± 54	128 ± 9	11200 ± 6400	C=CC(=O)N1CC2(CN(Cc3ccc([C@H](C)Nc4ncc5c(n4)N(C(C)C)C(=O)OC5)cc3)C2)C1 [Example 15, 1-Isopropyl-7-[[(1S)-1-[4-[(2-prop-2-enoyl-2,6-diazaspiro[3.3]heptan-6-yl)methyl]phenyl]ethyl]amino]-4H-pyrimido[4,5-d][1,3]oxazin-2-one]
137 ± 44	116 ± 15	22700 ± 11800	C=CC(=O)N1CCN(Cc2ccc([C@H](C)Nc3ncc4c(n3)N(CC)C(=O)OC4)cc2F)CC1 [Example 16, 1-Ethyl-7-[[(1S)-1-[3-fluoro-4-[(4-prop-2-enoylpiperazin-1-yl)methyl]phenyl]ethyl]amino]-4H-pyrimido[4,5-d][1,3]oxazin-2-one]
189 ± 33	180 ± 33	12500 ± 400	C=CC(=O)N1CCN(Cc2ccc([C@H](C)Nc3ncc4c(n3)N(CC(F)F)C(=O)OC4)cc2)CC1 [Example 20, 1-(2,2-difluoroethyl)-7-[[(1S)-1-[4-[(4-prop-2-enoylpiperazin-1-yl)methyl]phenyl]ethyl]amino]-4H-pyrimido[4,5-d][1,3]oxazin-2-one]
